For orientation: Ki means a dissociation constant, usually derived from enzyme kinetics or from competition with a known ligand. Read a high Ki as a looser hold on the target.

Each structure is given as a SMILES string.

The target in assay [1] is T1, c-KIT (Homo sapiens, UniProt P10721).
T1 construct: 0.02% BSA and 25 nM c-KIT
Description: Inhibition of c-KIT, radiometric filter-binding assay. Format: biochemical. The conditions noted are these: 700 μM ATP, pE4Y substrate. How it is done: Compounds are screened for their ability to inhibit c-KIT activity using a radiometric filter-binding assay. This assay monitors the ^33P incorporation into a substrate poly(Glu, Tyr) 4:1 (pE4Y). Reactions are carried out in a solution containing 100 mM HEPES (pH 7.5), 10 mM MgCl2, 25 mM NaCl, 1 mM DTT, 0.01% BSA and 2.5% DMSO. Final substrate concentrations in the assay were 700 μM ATP and 0.5 mg/mL pE4Y (both from Sigma Chemicals, St Louis, Mo.). The final concentration of compounds is generally between 0.01 and 5 μM. Typically, a 12-point titration is conducted by preparing serial dilutions from 10 mM DMSO stock of test compound. Reactions were carried out at room temperature.
Two assay solutions are prepared. Solution 1 contains 100 mM HEPES (pH 7.5), 10 mM MgCl2, 25 mM NaCl, 1 mg/ml pE4Y and 1.4 mM ATP (containing 0.5 μCi of [γ-^33P]ATP for each reaction). Solution 2 contains 100 mM HEPES (pH 7.5), 10 mM MgCl2, 25 mM NaCl, 2 mM DTT, 0.02% BSA and 25 nM c-KIT. The assay is run on a 96 well plate by mixing 33 μL of Solution1 and 1.65 μL of the test compounds. The reaction is initiated with 33 μL of Solution2. After incubation for 20 minutes at room temperature, the reaction was stopped with 50 μL of 10% TCA containing 0.2 mM of ATP. All of the reaction volume is then transferred to a filter plate and washed with 5% TCA by a Harvester9600 from TOMTEC (Hamden, Conn.). The amount of ^33P incorporation into pE4y is analyzed by a Packard TopCount Microplate Scintillation Counter (Meriden, Conn.). The data is fitted using Prism software to get an IC50 or Ki.

For assay [2], the target named is T2, JAK-3 (Homo sapiens, UniProt P52333).
T2 sequence (P52333 1-1124): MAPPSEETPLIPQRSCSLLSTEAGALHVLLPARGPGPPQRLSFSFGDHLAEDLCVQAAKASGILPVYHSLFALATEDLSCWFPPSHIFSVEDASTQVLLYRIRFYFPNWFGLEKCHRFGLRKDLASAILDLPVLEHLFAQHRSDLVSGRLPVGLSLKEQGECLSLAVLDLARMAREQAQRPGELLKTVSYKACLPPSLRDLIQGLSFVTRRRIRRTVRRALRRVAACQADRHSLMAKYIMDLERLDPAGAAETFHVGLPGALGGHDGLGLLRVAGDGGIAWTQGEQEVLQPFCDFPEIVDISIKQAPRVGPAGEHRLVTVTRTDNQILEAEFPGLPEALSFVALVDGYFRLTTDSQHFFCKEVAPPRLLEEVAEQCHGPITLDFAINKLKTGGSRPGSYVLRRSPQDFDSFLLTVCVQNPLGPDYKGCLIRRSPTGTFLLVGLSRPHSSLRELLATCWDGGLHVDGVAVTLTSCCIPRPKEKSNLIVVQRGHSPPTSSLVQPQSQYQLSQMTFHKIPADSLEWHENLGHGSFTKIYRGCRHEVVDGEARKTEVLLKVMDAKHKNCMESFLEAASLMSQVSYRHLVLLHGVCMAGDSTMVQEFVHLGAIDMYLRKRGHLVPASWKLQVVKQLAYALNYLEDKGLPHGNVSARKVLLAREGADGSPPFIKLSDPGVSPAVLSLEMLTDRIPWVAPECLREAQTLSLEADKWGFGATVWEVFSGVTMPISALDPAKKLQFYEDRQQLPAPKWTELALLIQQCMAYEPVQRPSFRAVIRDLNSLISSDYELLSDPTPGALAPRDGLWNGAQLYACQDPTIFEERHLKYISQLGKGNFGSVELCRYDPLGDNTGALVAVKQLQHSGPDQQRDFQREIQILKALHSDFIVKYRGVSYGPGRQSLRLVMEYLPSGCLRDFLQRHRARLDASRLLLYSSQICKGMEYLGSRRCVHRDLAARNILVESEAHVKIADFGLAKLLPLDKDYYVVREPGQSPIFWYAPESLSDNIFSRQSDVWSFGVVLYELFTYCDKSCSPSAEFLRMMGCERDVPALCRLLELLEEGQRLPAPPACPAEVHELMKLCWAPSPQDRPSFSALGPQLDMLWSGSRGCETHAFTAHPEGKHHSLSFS
In words: JAK3 inhibition assay (ELISA, Poly (Glu, Ala, Tyr) coated plates). As to conditions: 2 μM ATP. Format: biochemical. How it is done: Compound inhibition of JAK was assayed by the method described by G. R. Brown, et al, Bioorg. Med. Chem. Lett. 2000, vol. 10, pp 575-579 in the following manner. Into Maxisorb plates, previously coated at 4° C. with Poly (Glu, Ala, Tyr) 6:3:1 then washed with phosphate buffered saline 0.05% and Tween-(PBST), was added 2 μM ATP, 5 mM MgCl2, and a solution of compound in DMSO. The reaction was started with JAK enzyme and the plates incubated for 60 minutes at 30° C. The plates were then washed with PBST, 100 μL HRP-Conjugated 4G10 antibody was added, and the plate incubated for 90 minutes at 30° C. The plate was again washed with PBST, 100 μL TMB solution is added, and the plates were incubated for another 30 minutes at 30° C. Sulfuric acid (100 μL of 1M) was added to stop the reaction and the plate is read at 450 nm to obtain the optical densities for analysis to determine Ki values.

T1 sequence (P10721 26-976): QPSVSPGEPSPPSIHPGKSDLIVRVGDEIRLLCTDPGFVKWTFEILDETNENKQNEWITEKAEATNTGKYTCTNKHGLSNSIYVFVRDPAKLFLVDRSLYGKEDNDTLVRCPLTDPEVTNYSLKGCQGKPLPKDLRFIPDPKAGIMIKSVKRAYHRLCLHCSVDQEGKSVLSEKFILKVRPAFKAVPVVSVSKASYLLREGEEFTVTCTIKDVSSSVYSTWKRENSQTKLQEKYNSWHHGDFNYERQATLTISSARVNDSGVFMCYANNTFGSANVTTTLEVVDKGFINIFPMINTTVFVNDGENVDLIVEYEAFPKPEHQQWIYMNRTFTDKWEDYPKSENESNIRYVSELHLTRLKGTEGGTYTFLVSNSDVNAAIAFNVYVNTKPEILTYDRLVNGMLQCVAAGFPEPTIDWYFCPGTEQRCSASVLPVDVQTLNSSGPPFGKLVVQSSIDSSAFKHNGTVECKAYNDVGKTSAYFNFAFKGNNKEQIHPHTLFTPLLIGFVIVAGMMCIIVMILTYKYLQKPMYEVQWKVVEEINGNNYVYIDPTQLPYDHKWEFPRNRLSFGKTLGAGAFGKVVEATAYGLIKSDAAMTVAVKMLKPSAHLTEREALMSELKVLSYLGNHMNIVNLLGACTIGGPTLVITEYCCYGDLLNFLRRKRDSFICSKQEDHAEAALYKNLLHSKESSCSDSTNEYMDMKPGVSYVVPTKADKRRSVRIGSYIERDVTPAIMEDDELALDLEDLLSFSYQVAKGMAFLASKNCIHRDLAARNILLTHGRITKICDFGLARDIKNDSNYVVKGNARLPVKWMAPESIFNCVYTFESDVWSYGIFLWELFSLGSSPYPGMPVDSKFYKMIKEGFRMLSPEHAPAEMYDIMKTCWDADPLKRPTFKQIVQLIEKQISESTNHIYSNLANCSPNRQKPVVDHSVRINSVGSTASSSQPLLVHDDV

Take `CC(=O)N1[C@H](C)CN(c2cc(-n3cnc(Nc4ccc(N5CCN(C(=O)OC(C)(C)C)CC5)cc4)n3)ccn2)C[C@@H]1C` [Compound I-97, 4-(4-{1-[2-(4-Acetyl-3,5-dimethyl-piperazin-1-yl)-pyridin-4-yl]-1H-[1,2,4]triazol-3-ylamino}-phenyl)-piperazine-1-carboxylic acid tert-butyl ester]: the results for the Ki in assay [1] and in assay [2] were 50 to 500 nM and 10 to 1000 nM, respectively.
The corresponding values for `CC(=O)N1[C@H](C)CN(c2cc(-n3cnc(Nc4ccc(NC(=O)NC(C)C)cc4)n3)ccn2)C[C@@H]1C` [Compound I-100] are 50 to 500 nM and less than 10 nM.
As to `c1ccc(-n2cnc(Nc3ccc4c(c3)OCCO4)n2)cc1` [Compound I-44], the values for the Ki in assay [1] and in assay [2] were less than 50 nM and more than 1000 nM, respectively.
The corresponding values for `CC(=O)N1[C@H](C)CN(c2cc(-n3cnc(Nc4ccc(N5CCOCC5)cc4)n3)ccn2)C[C@@H]1C` [Compound I-85, 1-(2,6-Dimethyl-4-{4-[3-(4-morpholin-4-yl-phenylamino)-[1,2,4]triazol-1-yl]-pyridin-2-yl}-piperazin-1-yl)-ethanone] are 50 to 500 nM and 10 to 1000 nM.
With `CC(=O)N1[C@H](C)CN(c2cc(-n3cnc(Nc4ccc(NC(=O)C(F)(F)F)cc4)n3)ccn2)C[C@@H]1C` [Compound I-79], the Ki in assay [1] is 50 to 500 nM; in assay [2], less than 10 nM.
`CC(C)Oc1cccc(Nc2ncn(-c3ccccc3)n2)c1` [Compound I-46]: the inhibition constant Ki in assay [1] is less than 50 nM; in assay [2] it was more than 1000 nM.
As to `CC1CCCN1c1cc(-n2cnc(Nc3ccccc3)n2)ccn1` (stereo not drawn) [Compound I-56], the values for the Ki in assay [1] and in assay [2] were less than 50 nM and 10 to 1000 nM, respectively.
Regarding `CC(=O)N1[C@H](C)CN(c2cc(-n3cnc(Nc4ccc(NC(=O)OC(C)C)cc4)n3)ccn2)C[C@@H]1C` [Compound I-89], the Ki in assay [1] lay in the range of 50 to 500 nM; in assay [2] it was 10 to 1000 nM.
Consider `CC(=O)N1[C@H](C)CN(c2cc(-n3cnc(Nc4ccc(NC(=O)N(C)C)cc4)n3)ccn2)C[C@@H]1C` [Compound I-77, 3-(4-{1-[2-(4-Acetyl-3,5-dimethyl-piperazin-1-yl)-pyridin-4-yl]-1H-[1,2,4]triazol-3-ylamino}-phenyl)-1,1-dimethyl-urea], for which the Ki in assay [1] lay in the range of 50 to 500 nM; in assay [2] it was 10 to 1000 nM.
The corresponding values for `CC(=O)N1[C@H](C)CN(c2cc(-n3cnc(Nc4ccc(NC(=O)c5ccco5)cc4)n3)ccn2)C[C@@H]1C` [Compound I-81, Furan-2-carboxylic acid (4-{1-[2-(4-acetyl-3,5-dimethyl-piperazin-1-yl)-pyridin-4-yl]-1H-[1,2,4]triazol-3-ylamino}-phenyl)-amide] are 50 to 500 nM and 10 to 1000 nM.
The corresponding values for `CC(=O)N1[C@H](C)CN(c2cc(-n3cnc(Nc4ccc(NC(=O)OCC(C)(C)C)cc4)n3)ccn2)C[C@@H]1C` [Compound I-91] are 50 to 500 nM and 10 to 1000 nM.
On the same counts, the results for `CCOc1ccc(Nc2ncn(-c3ccccc3)n2)cc1` [Compound I-47] are less than 50 nM and more than 1000 nM.
As for `CCCN(CCO)c1cc(-n2cnc(Nc3ccccc3)n2)ccn1` [Compound I-58], the values for the inhibitory constant (Ki) in assay [1] and in assay [2] were less than 50 nM and 10 to 1000 nM, respectively.
On the same counts, the results for `CC(=O)N1[C@H](C)CN(c2cc(-n3cnc(Nc4ccc(N5CCN(S(=O)(=O)c6ccc(C)cc6)CC5)cc4)n3)ccn2)C[C@@H]1C` [Compound I-92] are 50 to 500 nM and less than 10 nM.
On the same counts, the results for `c1ccc(-n2cnc(Nc3ccnc(N4CCOCC4)c3)n2)cc1` [Compound I-105] are less than 50 nM and 10 to 1000 nM.
The corresponding values for `CC(=O)N1[C@H](C)CN(c2cc(-n3cnc(Nc4ccc(NC(=O)OCC(C)C)cc4)n3)ccn2)C[C@@H]1C` [Compound I-90] are 50 to 500 nM and 10 to 1000 nM.
With `CN(Cc1ccccc1)c1cc(-n2cnc(Nc3ccccc3)n2)ccn1` [Compound I-55], the Ki in assay [1] is less than 50 nM; in assay [2], 10 to 1000 nM.
`CCCOC(=O)Nc1ccc(Nc2ncn(-c3ccnc(N4C[C@@H](C)N(C(C)=O)[C@@H](C)C4)c3)n2)cc1` [Compound I-88]: the Ki was 50 to 500 nM in assay [1] and 10 to 1000 nM in assay [2].
The corresponding values for `CC(=O)N1[C@H](C)CN(c2cc(-n3cnc(Nc4ccc(NC(=O)NC(C)(C)C)cc4)n3)ccn2)C[C@@H]1C` [Compound I-101] are 50 to 500 nM and 10 to 1000 nM.
In the case of `N#CCC(=O)N1CCCN(c2cc(-n3cnc(Nc4ccccc4)n3)ccn2)CC1` [Compound I-72], the Ki lay within 50 to 500 nM in assay [1] and 10 to 1000 nM in assay [2].
With `CC(=O)N1[C@H](C)CN(c2cc(-n3cnc(Nc4ccccc4)n3)ccn2)C[C@@H]1C` [Compound I-74], the Ki is 50 to 500 nM in assay [1] and less than 10 nM in assay [2].

The values above are taken from patent US7598245B2 (Vertex Pharmaceuticals Incorporated, priority 2003, dated 2009).
